For one data set, the system named is Balb/c mice. As to conditions: twice daily for 4 days; cited from earlier work.
The next data set has as its system mice. As to conditions: cited from earlier work.
The test system of data set [1] is IκBα phosphorylation in HEK293 cells. Briefly: IκBα phosphorylation after TNFα stimulation. In kind it is cell-based. As to conditions: HEK293, 5 and 10 min after TNFα stimulation.

SMILES strings stand for the structures.

On to `COc1c(Cl)cc2c([nH]c3cnccc32)c1NC(=O)c1cccnc1C` [ML-120B], for which the “granulocytosis and LPS-induced mortality” value in the data set with Balb/c mice was “resulted in granulocytosis and LPS-induced mortality”. Also, in the data set with mice, the toxicity in mice entry is listed as “showed toxicity in mice”.
Take `NC(=O)Nc1sc(-c2ccc(F)cc2)cc1C(N)=O` [TPCA1]: the “inhibition of IκBα phosphorylation and degradation at early time points” value in data set [1] is given as “complete inhibition”. Also, the toxicity in mice result with mice is “showed toxicity in mice”.

Source of the values: article PMC3630250 (Clinical cancer research : an official journal of the …, 2013).
